Experimental data reported in patent US20210007356A1, “IMIDE DERIVATIVE AND FUNGICIDE CONTAINING SAID DERIVATIVE AS ACTIVE INGREDIENT” (HOKKO CHEMICAL INDUSTRY CO., LTD., priority 2018, published 2021).
Like-named read-outs stand apart in the source and are kept apart here.

Assays:
[1] = test system: rice blast fungus (Pyricularia grisea); type: in vivo; settings: flowable diluted to 100 ppm, 10 mL per pot foliage spray on paddy rice; inoculated day after; 7 days after inoculation
[2] = test system: rice blast fungus (Pyricularia grisea); type: in vivo; settings: 5 g of granule on nursery box, paddy rice; inoculated after 3 weeks; 7 days after inoculation
[3] = test system: rice blast fungus (Pyricularia grisea); type: in vivo; settings: flowable 5,000 ppm, 50 mL irrigation of nursery box, paddy rice; inoculated after 3 weeks; 7 days after inoculation
[4] = test system: rice blast fungus (Pyricularia grisea); type: in vivo; settings: flowable 1,000 ppm, 1 mL dripped in paddy water, inoculated after 1 week, 7 days after inoculation
[5] = test system: rice sheath blight fungus (Thanatephorus cucumeris); assay: Test Example 6: control effect against rice sheath blight by box treatment (flowable formulation); settings: flowable 5,000 ppm, 50 mL irrigation of nursery box, paddy rice; inoculated after 3 weeks; 7 days after inoculation
[6] = test system: rice sheath blight fungus (Thanatephorus cucumeris); assay: Test Example 10: control effect against rice sheath blight by water surface application (flowable formulation); settings: flowable 1,000 ppm, 1 mL dripped in paddy water, inoculated after 1 week, 7 days after inoculation
[7] = test system: rice sheath blight fungus (Thanatephorus cucumeris); assay: Test Example 8: control effect against rice sheath blight by box treatment (granule); settings: 5 g of granule on nursery box, paddy rice; inoculated after 3 weeks; 7 days after inoculation
[8] = test system: barley powdery mildew fungus (Erysiphe graminis); assay: Test Example 2: control effect against barley powdery mildew by foliage application; type: in vivo; settings: wettable powder diluted to 100 ppm, 10 mL per pot foliage spray on barley; inoculated day after; 7 days after inoculation

Row | SMILES | evaluation value of control effect (from control value, number of lesions) [1] | evaluation value of control effect (from control value, number of lesions) [2] | evaluation value of control effect (from control value, number of lesions) [3] | evaluation value of control effect (from control value, number of lesions) [4] | evaluation value of control effect (from control value, lesion height) [5] | evaluation value of control effect (from control value, lesion height) [6] | melting point [°C] | evaluation value of control effect (from control value, lesion height) [7] | evaluation value of control effect (from control value, lesion area percentage) [8]
1 | CC(C)CC(C)c1ccccc1N(C(=O)c1cccnc1C(F)F)C(=O)c1snc(Cl)c1Cl (stereo not shown) [13-2, 3,4-Dichloro-N-{2-(difluoromethyl)pyridine-3-carbonyl}-N-{2-(1,3-dimethylbutyl)phenyl}isothiazole-5-carboxamide] | 4 | 5 | 5 | 5 | 5 | 5 | 111 to 115.6 | 5 | 5
2 | CC(C)CC(C)c1ccccc1N(C(=O)c1cccnc1Br)C(=O)c1snc(Cl)c1Cl (stereo not shown) [13-54] | 4 | 5 | 5 | 5 | 5 | 5 |  | 5 | 4
3 | O=C(c1nccnc1C(F)(F)F)N(c1ccccc1-c1ccc(F)c(F)c1)c1snc(Cl)c1Cl [13-55, N-(3,4-Dichloroisothiazol-5-yl)-N-(3′,4′-difluorobiphen-2-yl)-3-(trifluoromethyl)pyrazine-2-carboxamide] | 4 | 5 | 5 | 5 | 5 | 5 | 136.1 to 139.2 | 5 | 5
4 | CC(C)CC(C)c1ccccc1N(C(=O)c1cc(F)nc(F)c1)C(=O)c1cccnc1C(F)F (stereo not shown) [13-58] | 4 | 5 | 5 | 5 | 5 | 5 |  | 5 | 5
5 | CC1CC(C)(C)c2cccc(N(C(=O)c3cn(C)nc3C(F)F)C(=O)c3snc(Cl)c3Cl)c21 (stereo not shown) [25-4, 3,4-Dichloro-N-{3-(difluoromethyl)-1-methyl-pyrazole-4-carbonyl)-N-(2,3-dihydro-1,1,3-trimethyl-1H-inden-4-yl)-isothiazole-5-carboxamide] |  |  |  |  | 5 | 5 | 154.3 to 155.6 | 5 | 4
6 | Cc1nnsc1C(=O)N(C(=O)c1cn(C)nc1C(F)F)c1cccc2c1C(C)OC2(C)C (stereo not shown) [25-56] | 4 | 5 | 5 | 5 | 5 | 5 |  | 5 | 4
7 | CC1OC(C)(C)c2cccc(N(C(=O)c3cn(C)nc3C(F)F)C(=O)c3snnc3C(F)F)c21 (stereo not shown) [25-68] | 4 | 5 | 5 | 5 | 5 | 5 |  | 5 | 4
8 | CC1OC(C)(C)c2cccc(N(C(=O)c3cn(C)nc3C(F)F)C(=O)c3scnc3C(F)F)c21 (stereo not shown) [25-110] | 4 | 5 | 5 | 5 | 5 | 5 |  | 5 | 4
9 | Cc1nn(C)c(Cl)c1C(=O)N(C(=O)c1snc(Cl)c1Cl)c1cccc2c1C(C)OC2(C)C (stereo not shown) [25-115, 3,4-Dichloro-N-(5-chloro-1,3-dimethyl-pyrazole-4-carbonyl)-N-(1,3-dihydro-1,1,3-trimethylisobenzofuran-4-yl)-isothiazole-5-carboxamide] | 4 |  |  |  | 5 | 5 | 165.5 to 170.3 | 5 | 4
10 | Cc1nc(C(F)F)c(C(=O)N(C(=O)c2snnc2C)c2cccc3c2C(C)OC3(C)C)s1 (stereo not shown) [26-50] | 4 | 5 | 5 | 5 | 5 | 5 |  | 5 | 4
11 | Cc1nc(C(F)F)c(C(=O)N(C(=O)c2scnc2C(F)F)c2cccc3c2C(C)CC3(C)C)s1 (stereo not shown) [26-85] | 4 | 5 | 5 | 5 | 5 | 5 |  | 5 | 5
